Assay results taken from US11970713B2, “Method for long-term ex vivo maintenance or expansion of human erythroblast, human megakaryocyte-erythroid progenitor, or human common myeloid progenitor cell and application thereof” (OCGENE THERAPEUTICS CORPORATION, priority 2020, dated 2024).
“Also recorded” adds a separate entry of the source.

Tested on: human umbilical cord blood mononuclear cells
Assay: Cell expansion in E6 medium with different tankyrase inhibitors, removal of SB590885 or CHIR99021, or different XAV939 concentrations (Example 6)
Assay type: cell-based
Details: XAV939 between 0.2 μM and 2 μM in E6 + 3i
Protocol: 2×10^6 of human umbilical cord blood mononuclear cells were cultured in E6 medium supplemented with 3i composition (the same as that in EXAMPLE 1) as a control group; and 2×10^6 of human umbilical cord blood mononuclear cells were cultured in E6 medium supplemented with 3i+X composition (the same as that in EXAMPLE 1) as experimental groups, wherein X presented the tankyrase inhibitor, and different tankyrase inhibitors were selected from JW55, RK-287107, WIKI4, XAV939 or TC-E5001 in different experimental groups.
Additionally, the inventors investigated effect of removal of SB590885, removal of CHIR99021, or experience of different concentrations of XAV939 on cell expansion. The cell counting results were shown in Tables 2, 3, and 4, respectively.

## Oc1nc(-c2ccc(C(F)(F)F)cc2)nc2c1CSCC2 [XAV939]
  Effect of XAV939 concentration on expanded cell numbers: about the same; also recorded: can promote cell expansion
